Legend:
[1] = tested on: P-388 (suspension culture of a lymphoid neoplasm from DBA/2 mouse); experiment: in vitro cytotoxic assay, P-388 cells; assay type: cell-based; conditions: P388, 72 h, three days of incubation, approximate IC50 by growth vs control wells
Method: (§1) Cells were maintained in logarithmic phase of growth in Eagle's Minimum Essential Medium, with Earle's Balanced Salts, with 2.0 mM L-glutamine, with non-essential amino acids, without sodium bicarbonate EMEM/neaa); supplemented with 10% Fetal Calf Serum (FCS), 10^−2 M sodium bicarbonate and 0.1 g/l penicillin-G+streptomycin sulfate.
(§2) A screening procedure has been carried out to determine and compare the antitumor activity of these compounds, using an adapted form of the method described by Bergeron et al. (Reference 5). The antitumor cells employed were P-388 (suspension culture of a lymphoid neoplasm from DBA/2 mouse), A-549 (monolayer culture of a human lung carcinoma), HT-29 (monolayer culture of a human colon carcinoma) and MEL-28 (monolayer culture of a human melanoma).
(§3) P-139 cells were seeded into 16 mm wells at 1×10^4 sells per well in 1 ml aliquots of MEM SFCS containing the indicated concentration of drug. A separate set of cultures without drug was seeded as control growth to ensure that cells remained in exponential phase of growth. All determinations were carried out in duplicate. After three days of incubation at 37° C., 10% CO2 in a 98% humid atmosphere, an approximately IC50 was determined by comparing the growth in wells with drug to the growth in wells control.

[2] = tested on: A-549 (monolayer culture of a human lung carcinoma); experiment: in vitro cytotoxic assay, A-549 cells; assay type: cell-based; conditions: A549, 72 h, three days of incubation, Crystal Violet staining, approximate IC50
Method: as §1, §2
as §3, with “A-549, HT-29 and MEL-28” for “P-139”, “2×10^4 cells” for “1×10^4 sells”, “10FCS” for “SFCS”, “the wells were stained with 0.1% Crystal Violet. An” for “an”

[3] = tested on: HT-29 (monolayer culture of a human colon carcinoma); experiment: in vitro cytotoxic assay, HT-29 cells; assay type: cell-based; conditions: 72 h, three days of incubation, Crystal Violet staining, approximate IC50
Method: as §1, §2
as §3, with “A-549, HT-29 and MEL-28” for “P-139”, “2×10^4 cells” for “1×10^4 sells”, “10FCS” for “SFCS”, “the wells were stained with 0.1% Crystal Violet. An” for “an”

[4] = tested on: MEL-28 (monolayer culture of a human melanoma); experiment: in vitro cytotoxic assay, MEL-28 cells; assay type: cell-based; conditions: SK-MEL-28, 72 h, three days of incubation, Crystal Violet staining, approximate IC50
Method: as §1, §2
as §3, with “A-549, HT-29 and MEL-28” for “P-139”, “2×10^4 cells” for “1×10^4 sells”, “10FCS” for “SFCS”, “the wells were stained with 0.1% Crystal Violet. An” for “an”

[5] = tested on: solid tumors like A-549, HT-29 and MEL-28; experiment: in vitro antitumor selectivity across the cytotoxicity panel; assay type: cell-based, human; conditions: solid tumor lines A-549, HT-29, MEL-28 compared with P-388
Method: as §2, §3
A-549, HT-29 and MEL-28 cells were seeded into 16 mm wells at 2×10^4 cells per well in 1 ml aliquots of MEM 10FCS containing the indicated concentration of drug. A separate set of cultures without drug was seeded as control growth to ensure that cells remained in exponential phase of growth. […] An approximately IC50 was determined by comparing the growth in wells with drug to the growth in wells control.

COC(CC1OC(=O)CC(OC(N)=O)CC(C)CC(O)C(C)C(OC)c2coc(n2)-c2coc(n2)-c2coc(n2)/C=C/CC(OC)C1C)C(C)CCC(=O)C(C)C(OC)C(C)CC=O (centres unmarked) [TH-2]
IC50 [1]: 11 nM | IC50 [2]: 2 nM | IC50 [3]: 2 nM | IC50 [4]: 2 nM | in vitro antitumor selectivity for solid tumors [5]: in vitro antitumor selectivity for solid timors

Reference: patent US6391900B1, “Cytotoxic tris(oxazole)-containing macrolides” (Instituto Biomar S.A., priority 1998, dated 2002)
